Earlier results as cited in patent US11751566B2, “Growth regulator concentrate and use thereof” (FINE AGROCHEMICALS LIMITED, priority 2013, dated 2023).

solubility in solvents (including water) | SMILES | solubility in organic polar solvent (solution as generally provided) (organic polar solvent, like an alcohol)
– | C=C1C[C@]23C[C@@]1(O)CC[C@H]2[C@@]12C=C[C@H](O)[C@@](C)(C(=O)O1)[C@H]2[C@@H]3C(=O)O [GA3, Gibberellic acid] | 3-4 wt %
low solubility | CCC(=O)C1C(=O)CC(C(=O)O)CC1=O (centres unmarked) [Prohexadione] | –
